Measurements taken from patent US7612087B2, “Heterocyclic compounds as inhibitors of beta-lactamases” (Novexel, priority 2002, dated 2009).
Where a name gives a salt, the structure may show the parent alone. Read-outs that look alike come from different tables or passages of the source.

Assays:
β-lactamase TEM1 = target: T1, β-lactamase TEM1 (Escherichia coli, UniProt P62593); experiment: Inhibition of isolated β-lactamase Tem-1 (Nitrocefin hydrolysis); type: biochemical, E.coli 250HT21; details: 100 μM Nitrocefin, 50 mM sodium phosphate buffer pH7.0, 37° C.
T1 construct: The β-lactamases are isolated from bacterial strains which are resistant to penicillins and cephalosporins; endogenous in cells; host or cells: E. coli 250HT21 (natural producer; French-press lysate, 100,000 g supernatant)
T1 sequence (P62593 24-286 limits assumed): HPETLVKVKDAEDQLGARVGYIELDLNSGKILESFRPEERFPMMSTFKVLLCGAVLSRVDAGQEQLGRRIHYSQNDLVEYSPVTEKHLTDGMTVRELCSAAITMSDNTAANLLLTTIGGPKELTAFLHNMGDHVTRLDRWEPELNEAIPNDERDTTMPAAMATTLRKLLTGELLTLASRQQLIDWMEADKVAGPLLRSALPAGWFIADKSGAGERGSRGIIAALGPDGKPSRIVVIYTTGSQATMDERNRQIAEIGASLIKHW
In short: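 TEM-1 from soluble extract of E. coli 250HT21, normalized enzyme, 100 μM Nitrocefin in 50 mM sodium phosphate pH 7.0 at 37 °C. Initial-rate hydrolysis read kinetically at 485 nm, with and without 5 min enzyme–inhibitor preincubation. CI50 from 6 or 8 concentrations in duplicate.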

β-lactamase P99 = target: T2, β-lactamase P99 (Enterobacter cloacae, UniProt P05364); experiment: biochemical
T2 construct: The β-lactamases are isolated from bacterial strains which are resistant to penicillins and cephalosporins; endogenous in cells; host or cells: Enterobacter cloacae 293HT6 (natural producer; French-press lysate, 100,000 g supernatant)
T2 sequence (P05364 21-381): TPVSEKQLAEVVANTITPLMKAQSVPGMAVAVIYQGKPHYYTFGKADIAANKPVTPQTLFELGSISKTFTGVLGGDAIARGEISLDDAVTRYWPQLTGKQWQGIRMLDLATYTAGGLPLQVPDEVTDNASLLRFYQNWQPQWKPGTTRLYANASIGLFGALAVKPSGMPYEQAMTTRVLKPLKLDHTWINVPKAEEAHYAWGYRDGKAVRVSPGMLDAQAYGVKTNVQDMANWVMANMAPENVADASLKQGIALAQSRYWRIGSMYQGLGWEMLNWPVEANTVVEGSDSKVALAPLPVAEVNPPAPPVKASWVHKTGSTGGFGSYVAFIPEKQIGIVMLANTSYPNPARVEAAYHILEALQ
In short: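 P99 β-lactamase, taken from the soluble fraction of an Enterobacter cloacae 293HT6 lysate, was assayed at 37° C. in 50 mM sodium phosphate buffer pH7.0 with 100 μM Nitrocefin as the chromogenic substrate. Hydrolysis was followed kinetically at 485 nm at initial speed, with and without a 5 mn enzyme–inhibitor preincubation. Inhibitors were tested at 6 or 8 concentrations in duplicate, and IC50 was fitted with GraFit.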

E. coli 250CF1 (Tem3) = experiment: microbe, parasite or virus in culture; type: cell-based; details: compound at 5 mg/l, 24 hours at 37° C.; for MIC of Cefotaxime in combination with the compound: Trial 4, 250CF1 E. coli Tem3; for MIC of Piperacillin in combination with the compound: Trial 4, 250CF1 Tem3
In short: (§1)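 β-Lactamine was serially diluted in liquid medium with the test product held constant at 5 mg/l, then each dilution was inoculated with bacteria. After 24 hours at 37° C, the lowest concentration showing no bacterial growth was taken as the MIC, in mg/l.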

[1] = test system: E. cloacae 293HT6 (Class C); experiment: MIC, micro-dilution in liquid medium, β-lactamine with product at 5 mg/l; type: cell-based; details: compound at 5 mg/l, 24 hours at 37° C.; for MIC of Piperacillin in combination with the compound: Trial 9, 293HT6 Class; for MIC of Cefotaxime in combination with the compound: Trial 9, 293HT6 E. cloacae Class C
In short: as §1

E. coli 250BE1 (SHV4) = experiment: as above; type: cell-based; details: compound at 5 mg/l, 24 hours at 37° C.; for MIC of Cefotaxime in combination with the compound: Trial 7, 250BE1 E. coli SHV4; for MIC of Piperacillin in combination with the compound: Trial 7, 250BE1 SHV4
In short: as §1

E. coli 250HT21 (Tem1) = experiment: as above; type: cell-based; details: compound at 5 mg/l, 24 hours at 37° C.; for MIC of Cefotaxime in combination with the compound: Trial 2, 250HT21 E. coli Tem1; for MIC of Piperacillin in combination with the compound: Trial 2, 250HT21 Tem1
In short: as §1

E. coli 250HT22 (Tem2) = experiment: as above; type: cell-based; details: compound at 5 mg/l, 24 hours at 37° C.; for MIC of Cefotaxime in combination with the compound: Trial 3, 250HT22 E. coli Tem2; for MIC of Piperacillin in combination with the compound: Trial 3, 250HT22 Tem2
In short: as §1

[2] = test system: E. coli 250HT23 (Class D); experiment: as above; type: cell-based; details: compound at 5 mg/l, 24 hours at 37° C.; for MIC of Piperacillin in combination with the compound: Trial 8, 250HT23 Class D; for MIC of Cefotaxime in combination with the compound: Trial 8, 250HT23 E. coli Class D
In short: as §1

E. coli 250HT26 (SHV1) = experiment: as above; type: cell-based; details: compound at 5 mg/l, 24 hours at 37° C.; for MIC of Cefotaxime in combination with the compound: Trial 6, 250HT26 E. coli SHV1; for MIC of Piperacillin in combination with the compound: Trial 6, 250HT26 SHV1
In short: as §1

E. coli 250SJ1 (Tem7) = experiment: as above; type: cell-based; details: compound at 5 mg/l, 24 hours at 37° C.; for MIC of Cefotaxime in combination with the compound: Trial 5, 250SJ1 E. coli Tem7; for MIC of Piperacillin in combination with the compound: Trial 5, 250SJ1 Tem7
In short: as §1

[3] = test system: P. aeruginosa 391HT7 (PSE); experiment: as above; type: cell-based; details: compound at 5 mg/l, 24 hours at 37° C.; for MIC of Cefotaxime in combination with the compound: Trial 11, 391HT7 P. aeruginosa PSE; for MIC of Piperacillin in combination with the compound: Trial 11, 391HT7 PSE
In short: as §1

[4] = test system: P. aeruginosa 391HT8 (PSE); experiment: as above; type: cell-based; details: compound at 5 mg/l, 24 hours at 37° C.; for MIC of Cefotaxime in combination with the compound: Trial 12, 391HT8 P. aeruginosa PSE; for MIC of Piperacillin in combination with the compound: Trial 12, 391HT8 PSE
In short: as §1

[5] = test system: S. aureus 011GO66 (PeniR); experiment: as above; type: cell-based; details: compound at 5 mg/l, 24 hours at 37° C.; for MIC of Cefotaxime in combination with the compound: Trial 1, 011GO66 S. aureus PeniR; for MIC of Piperacillin in combination with the compound: Trial 1, 011GO66 peniR
In short: as §1

Serratia 301HT6 = experiment: as above; type: cell-based; details: compound at 5 mg/l; Trial 10, 301HT6 Serratia; 24 hours at 37° C.
In short: as §1

With `CN(C)c1ccc(NC(=O)[C@H]2CC[C@@H]3CN2C(=O)N3OS(=O)(=O)[O-])cc1.[Na+]` (relative stereo) [Example 40, sodium salt of trans-N-[4-(dimethylamino)phenyl]-7-oxo-6-(sulphooxy)-1,6-diazabicyclo[3.2.1]octane-2-carboxamide] the IC50 (β-lactamase TEM1) was 51 nM, the IC50 (β-lactamase P99; 100 μM Nitrocefin, 50 mM sodium phosphate buffer pH7.0, 37° C., read-out: IC50 nM/P99) was 96 nM and the “MIC of Cefotaxime in combination with the compound” value (shortened to “MIC of Cefotaxime in combination”) (E. coli 250CF1 (Tem3)) was 0.6 µg/mL. For the same molecule, the “MIC of Piperacillin in combination with the compound” value (shortened to “MIC of Piperacillin in combination”) (E. coli 250CF1 (Tem3)) was >40 µg/mL, the “MIC of Piperacillin in combination” value [1] was >40 µg/mL and the “MIC of Cefotaxime in combination” value [1] was >40 µg/mL. The “MIC of Cefotaxime in combination” value (E. coli 250BE1 (SHV4)) was 1.2 µg/mL, the “MIC of Piperacillin in combination” value (E. coli 250BE1 (SHV4)) was >40 µg/mL and the “MIC of Cefotaxime in combination” value (E. coli 250HT21 (Tem1)) was “<=0.04 μg/ml”. For the same molecule, the “MIC of Piperacillin in combination” value (E. coli 250HT21 (Tem1)) was 10 µg/mL, the “MIC of Cefotaxime in combination” value (E. coli 250HT22 (Tem2)) was “<=0.04 μg/ml” and the “MIC of Piperacillin in combination” value (E. coli 250HT22 (Tem2)) was >40 µg/mL. For the same molecule, the “MIC of Piperacillin in combination” value [2] was 20 µg/mL, the “MIC of Cefotaxime in combination” value [2] was “<=0.04 μg/ml” and the “MIC of Cefotaxime in combination” value (E. coli 250HT26 (SHV1)) was “<=0.04 μg/ml”. The “MIC of Piperacillin in combination” value (E. coli 250HT26 (SHV1)) was >40 µg/mL, the “MIC of Cefotaxime in combination” value (E. coli 250SJ1 (Tem7)) was 0.15 µg/mL and the “MIC of Piperacillin in combination” value (E. coli 250SJ1 (Tem7)) was >40 µg/mL. For the same molecule, the “MIC of Cefotaxime in combination” value [3] was >40 µg/mL, the “MIC of Piperacillin in combination” value [3] was >40 µg/mL and the “MIC of Cefotaxime in combination” value [4] was >40 µg/mL. The “MIC of Piperacillin in combination” value [4] was >40 µg/mL, the “MIC of Cefotaxime in combination” value [5] was 2.5 µg/mL and the “MIC of Piperacillin in combination” value [5] was 0.6 µg/mL. The “MIC of Cefotaxime in combination” value (Serratia 301HT6) was 0.08 µg/mL and the “MIC of Piperacillin in combination” value (Serratia 301HT6) was 1.2 µg/mL.
`NC(=O)CNC(=O)C1CCC2CN1C(=O)N2OS(=O)(=O)O` (stereo not drawn) [Example 45, sodium salt of trans-N-(2-amino-2-oxoethyl)-7-oxo-6-(sulphooxy)-1,6-diazabicyclo[3.2.1]octane-2-carboxamide] was tested, and the IC50 (β-lactamase TEM1) was 12 nM, the IC50 (β-lactamase P99) was 60 nM and the “MIC of Piperacillin in combination” value (E. coli 250CF1 (Tem3)) was 2.5 µg/mL. The “MIC of Piperacillin in combination” value [1] was 1.2 µg/mL, the “MIC of Piperacillin in combination” value (E. coli 250BE1 (SHV4)) was 5 µg/mL and the “MIC of Piperacillin in combination” value (E. coli 250HT21 (Tem1)) was 1.2 µg/mL. The “MIC of Piperacillin in combination” value (E. coli 250HT22 (Tem2)) was 2.5 µg/mL, the “MIC of Piperacillin in combination” value [2] was 10 µg/mL and the “MIC of Piperacillin in combination” value (E. coli 250HT26 (SHV1)) was 2.5 µg/mL. For the same molecule, the “MIC of Piperacillin in combination” value (E. coli 250SJ1 (Tem7)) was 2.5 µg/mL, the “MIC of Piperacillin in combination” value [3] was >40 µg/mL and the “MIC of Piperacillin in combination” value [4] was >40 µg/mL. The “MIC of Piperacillin in combination” value [5] was 1.2 µg/mL and the “MIC of Piperacillin in combination” value (Serratia 301HT6) was 0.6 µg/mL.
With `NC(=O)C(Cc1ccccc1)NC(=O)C1CCC2CN1C(=O)N2OS(=O)(=O)O` (stereo not drawn) [Example 44, sodium salt of trans-N-(1-amino-1-oxo-3-phenyl-2-propyl)-7-oxo-6-(sulphooxy)-1,6-diazabicyclo[3.2.1]octane-2-carboxamide] the IC50 (β-lactamase TEM1) was 59 nM, the IC50 (β-lactamase P99) was 100 nM and the “MIC of Cefotaxime in combination” value (E. coli 250CF1 (Tem3)) was 0.3 µg/mL. For the same molecule, the “MIC of Piperacillin in combination” value (E. coli 250CF1 (Tem3)) was 40 µg/mL, the “MIC of Piperacillin in combination” value [1] was >40 µg/mL and the “MIC of Cefotaxime in combination” value [1] was >40 µg/mL. The “MIC of Cefotaxime in combination” value (E. coli 250BE1 (SHV4)) was 0.6 µg/mL, the “MIC of Piperacillin in combination” value (E. coli 250BE1 (SHV4)) was >40 µg/mL and the “MIC of Cefotaxime in combination” value (E. coli 250HT21 (Tem1)) was “<=0.04 μg/ml”. The “MIC of Piperacillin in combination” value (E. coli 250HT21 (Tem1)) was 5 µg/mL, the “MIC of Cefotaxime in combination” value (E. coli 250HT22 (Tem2)) was 0.15 µg/mL and the “MIC of Piperacillin in combination” value (E. coli 250HT22 (Tem2)) was >40 µg/mL. The “MIC of Piperacillin in combination” value [2] was 40 µg/mL, the “MIC of Cefotaxime in combination” value [2] was “<=0.04 μg/ml” and the “MIC of Cefotaxime in combination” value (E. coli 250HT26 (SHV1)) was 0.08 µg/mL. For the same molecule, the “MIC of Piperacillin in combination” value (E. coli 250HT26 (SHV1)) was >40 µg/mL, the “MIC of Cefotaxime in combination” value (E. coli 250SJ1 (Tem7)) was 0.08 µg/mL and the “MIC of Piperacillin in combination” value (E. coli 250SJ1 (Tem7)) was >40 µg/mL. The “MIC of Cefotaxime in combination” value [3] was >40 µg/mL, the “MIC of Piperacillin in combination” value [3] was >40 µg/mL and the “MIC of Cefotaxime in combination” value [4] was >40 µg/mL. The “MIC of Piperacillin in combination” value [4] was >40 µg/mL, the “MIC of Cefotaxime in combination” value [5] was 2.5 µg/mL and the “MIC of Piperacillin in combination” value [5] was 2.5 µg/mL. For the same molecule, the “MIC of Cefotaxime in combination” value (Serratia 301HT6) was 10 µg/mL and the “MIC of Piperacillin in combination” value (Serratia 301HT6) was >40 µg/mL.
